Test results as given in US10258235B2, “Method and device for the assessment of bowel function” (Purdue Pharma L.P., priority 2005, dated 2019).
Several values for one entry are separate records, joined by “and”; a condition that tells them apart may be missing. Identical values can stand only once. Entries after “also recorded” stand apart in the source; their conditions may differ. Like-named read-outs stand apart in the source and are kept apart here.

Key:
[1] = tested on: patients with severe chronic pain of tumor and non-tumor origin; conditions: for Mean Bowel Function Score, Mean V3: end of titration visit (V3, baseline before naloxone); for mean bowel function (±SD) at Visit 4: Visit 4 (after 1 week of naloxone); for mean bowel function (±SD) at the end of the maintenance phase: PP population
Procedure: (§1) The method of the present invention and analog scales of the present invention were employed in a clinical Phase II study conducted in Europe.
(§2) For some analyses, the last observation was carried forward for those ITT subjects who discontinued after Visit 4 (ITT/LOCF). In other instances, only the available data were used (ITT non-missing).
(§3) The Per Protocol (PP) population included all randomized patients who completed the study (including the follow-up phase) without major protocol violations. […] Only deviations from the visit window of the maintenance phase visits (visit 4 and 5) were regarded as major protocol violations. Deviations from the other visits were regarded as minor protocol violations. […] 3. Primary Efficacy Variables
(§4) a) Mean Pain during the last 7 days prior to each visit, based on the patient's twice-daily assessment of pain intensity using the 0-100 numerical analogue scale (NAS) (0=no pain and 100=worst imaginable pain). Mean Pain was calculated for each study visit as the mean value of the daily mean values of all patient's diary entries from the last 7 days. b) Mean bowel function: patient's assessment, at each study visit, of bowel function during the last 7 days prior to each visit. Mean bowel function was calculated from the mean of the three 0-100 NAS scores: ease of defecation (0=easy/no difficulty, 100=severe difficulty), feeling of incomplete bowel evacuation (0=not at all, 100=very strong), and judgment of constipation (0=not at all, 100=very strong). 4. Analgesic Efficacy Results
Mean bowel function was calculated for each study visit from the mean of the three NAS values ease/difficulty of defecation, feeling of incomplete bowel evacuation and judgment of constipation.
In addition, two-sided 95% CIs (CI, confidence interval) for the difference in means between the treatment groups were provided. […] These analyses were performed for the ITT and PP populations.
The parameter estimates derived were taken to display a surface plot of the whole dose range investigated. Moreover, a contour plot of the bowel function with a granulation of 10 was performed.

[2] = tested on: patients with severe chronic pain of tumor and non-tumor origin; assay: Mean pain (0-100 NAS) during the last 7 days before each visit, clinical Phase II study; type: in vivo, human; conditions: for Mean Pain, Mean V5 / Mean Pain, Mean V3: NAS 0-100; for Mean Pain, Mean V3: end of titration visit (V3, baseline before naloxone)
Procedure: as §1, §2, §3, §4

C=CCN1CC[C@]23c4c5ccc(O)c4O[C@H]2C(=O)CC[C@@]3(O)[C@H]1C5 [Naloxone, naloxone]
Mean Bowel Function Score, Mean V5 ([1]; ITT (non-missing), end of maintenance (V5, 4 weeks), naloxone 10 mg/day plus oxycodone 40-80 mg/day, NAS 0-100, higher = worse): 40.3
Mean Bowel Function Score, Mean V5 ([1]; ITT (non-missing), end of maintenance (V5, 4 weeks), naloxone 10 mg/day plus oxycodone 40-80 mg/day, NAS 0-100, higher = worse, listed as naloxone): 40.3 (±23.09) and 40.3 (±23.1)
Mean Bowel Function Score, Mean V5 ([1]; ITT (non-missing), end of maintenance (V5, 4 weeks), naloxone 20 mg/day plus oxycodone 40-80 mg/day, NAS 0-100, higher = worse): 31.3
Mean Bowel Function Score, Mean V5 ([1]; ITT (non-missing), end of maintenance (V5, 4 weeks), naloxone 20 mg/day plus oxycodone 40-80 mg/day, NAS 0-100, higher = worse, listed as naloxone): 31.3 (±25.82) and 31.3 (±25.8)
Mean Bowel Function Score, Mean V5 ([1]; ITT (non-missing), end of maintenance (V5, 4 weeks), naloxone 40 mg/day plus oxycodone 40-80 mg/day, NAS 0-100, higher = worse): 26.1
Mean Bowel Function Score, Mean V5 ([1]; ITT (non-missing), end of maintenance (V5, 4 weeks), naloxone 40 mg/day plus oxycodone 40-80 mg/day, NAS 0-100, higher = worse, listed as naloxone): 26.1 (±25.08) and 26.1 (±25.1)
Mean Bowel Function Score, Mean V3 ([1]; ITT non-missing, naloxone 10 mg/day group, NAS 0-100, higher = worse): 53.5
Mean Bowel Function Score, Mean V3 ([1]; ITT non-missing, naloxone 20 mg/day group, NAS 0-100, higher = worse): 51.3
Mean Bowel Function Score, Mean V3 ([1]; ITT non-missing, naloxone 40 mg/day group, NAS 0-100, higher = worse): 48.2
Mean Bowel Function Score, Mean V5 ([1]; ITT/LOCF, end of maintenance visit (V5), naloxone 10 mg/day plus oxycodone 40-80 mg/day): 40.1
Mean Bowel Function Score, Mean V5 ([1]; ITT/LOCF, end of maintenance visit (V5), naloxone 20 mg/day plus oxycodone 40-80 mg/day): 33.2
Mean Bowel Function Score, Mean V5 ([1]; ITT/LOCF, end of maintenance visit (V5), naloxone 40 mg/day plus oxycodone 40-80 mg/day): 26.5
Mean Bowel Function Score, Mean V3 ([1]; ITT/LOCF, naloxone 10 mg/day group): 53.6
Mean Bowel Function Score, Mean V3 ([1]; ITT/LOCF, naloxone 20 mg/day group): 49.9
Mean Bowel Function Score, Mean V3 ([1]; ITT/LOCF, naloxone 40 mg/day group): 47.7
mean bowel function (±SD) at Visit 4 ([1]; ITT, naloxone 10 mg/day): 42.1 (±25.53)
mean bowel function (±SD) at Visit 4 ([1]; ITT, naloxone 20 mg/day): 34.2 (±30.04)
mean bowel function (±SD) at Visit 4 ([1]; ITT, naloxone 40 mg/day): 27.9 (±22.68)
mean bowel function (±SD) at the end of follow-up ([1]; ITT, end of two-week follow-up on oxycodone only, former 40 mg naloxone group): 42.4 (±23.19)
mean bowel function (±SD) at the end of the maintenance phase ([1]; naloxone 10 mg/day): 39.4 (±23.44)
mean bowel function (±SD) at the end of the maintenance phase ([1]; naloxone 20 mg/day): 29.8 (±29.29)
mean bowel function (±SD) at the end of the maintenance phase ([1]; naloxone 40 mg/day): 29.6 (±28.34)
effect of adding controlled release naloxone to controlled release oxycodone on mean bowel function (in words) ([1]; the two higher doses of naloxone (20 mg and 40 mg)): statistically significant improvement in mean bowel function
Mean Pain, Mean V5 ([2]; ITT non-missing, end of maintenance visit (V5, 4 weeks), naloxone 10 mg/day plus oxycodone 40-80 mg/day): 37.2
Mean Pain, Mean V5 ([2]; ITT non-missing, end of maintenance visit (V5, 4 weeks), naloxone 20 mg/day plus oxycodone 40-80 mg/day): 37.5
Mean Pain, Mean V5 ([2]; ITT non-missing, end of maintenance visit (V5, 4 weeks), naloxone 40 mg/day plus oxycodone 40-80 mg/day): 38.7
Mean Pain, Mean V3 ([2]; ITT non-missing, naloxone 10 mg/day group, oxycodone 40-80 mg/day): 35.9
Mean Pain, Mean V3 ([2]; ITT non-missing, naloxone 20 mg/day group, oxycodone 40-80 mg/day): 39.8
Mean Pain, Mean V3 ([2]; ITT non-missing, naloxone 40 mg/day group, oxycodone 40-80 mg/day): 38.1
Mean Pain, Mean V5 ([2]; PP, end of maintenance visit (V5), naloxone 10 mg/day plus oxycodone 40-80 mg/day): 38.8
Mean Pain, Mean V5 ([2]; PP, end of maintenance visit (V5), naloxone 20 mg/day plus oxycodone 40-80 mg/day): 36.1
Mean Pain, Mean V5 ([2]; PP, end of maintenance visit (V5), naloxone 40 mg/day plus oxycodone 40-80 mg/day): 38.7
Mean Pain, Mean V3 ([2]; PP, naloxone 10 mg/day group): 38.0
Mean Pain, Mean V3 ([2]; PP, naloxone 20 mg/day group): 40.1
Mean Pain, Mean V3 ([2]; PP, naloxone 40 mg/day group): 39.0
Analgesic efficacy / mean pain, active naloxone versus naloxone placebo (in words) ([2]; end of maintenance, naloxone 10-40 mg/day added to oxycodone 40-80 mg/day): did not point to a difference in analgesic efficacy; also recorded: no evidence of changes in mean pain with varying amounts of naloxone
